{"source": "patent US6569845B1", "about": "“Neovascularization inhibitor containing dienogest as the active ingredient” (Mochida Pharmaceutical Co., Ltd., priority 1997, dated 2003)", "key": {"[1]": {"system": "chorioallantoic membrane of chick fertilized egg", "test": "CAM (chick embryo chorioallantoic membrane) assay, suppressing action of angiogenesis", "assay_type": "in vivo", "conditions": "for Number of choriallantoic membrane with non-vascular region: EV pellet, 2 days at 37° C.", "method": "Suppressing Action of Angiogenesis According to CAM (Chick Embryo Chorioallantoic Membrane) Assay\nAccording to the method by Hayashi, et al. (Mechanism of Angiogenesis and Diseases, Medical Journal, pp. 255-266, 1996), the suppressing action of angiogenesis was tested by the CAM assay using chorioallantoic membrane of chick fertilized egg. More specifically, a hole was opened through a chick fertilized egg incubated in an incubator at 37° C. for 4 or 5 days, and then, a silicone ring of an outer diameter of 5 mm and an inner diameter of 3 mm was gently placed on the center of the chorioallantoic membrane, followed by placement of an EV (ethylene-vinyl acetate copolymer) pellet containing dienogest or MPA inside the ring. A chorioallantoic membrane on which an EV pellet with no sample was placed was used as a control group. After incubation at 37° C. for 2 days, a fat emulsion preparation was injected into each chorioallantoic membrane, so as to get a clear view of the vascular network on the chorioallantoic membrane, for subsequent observation. Formation of a non-vascular region of a diameter of 3 mm or more on the chorioallantoic membrane was defined as positive suppressing action on angiogenesis.\na: frequency in % of the occurrence of non-vascular region, in parenthesis.\nb: Data of suppressing action on angiogenesis is statistically tested by the Fisher's accurate probability test."}, "[2]": {"system": "angiogenesis induced by the S-180 tumor cells", "test": "Murine dorsal air sac assay, angiogenesis induced by S-180 tumor cells", "assay_type": "in vivo", "conditions": "mouse", "method": "Suppressing Action of Angiogenesis by Murine Dorsal Air Sac Assay According to the method by Iwabana et al. (Cancer Invasion & Metastatic Research Manual, Kinpodo, pp. 172-176, 1995), suppressing action of angiogenesis was tested by the murine dorsal skin method. S-180 tumor cell (murine derived sarcoma) suspended in phosphate buffered saline (PBS) was injected into a Millipore chamber, and the injection opening was closed with a nylon stopper. With an injection syringe, air (10 ml) was injected into the dorsal skin of a mouse anesthetized with Nembutal, to prepare an […], into which the Millipore chamber was transplanted. Animals were preliminarily divided into 4 groups; a Millipore chamber injected with PBS instead of S-180 tumor cells was transplanted into animals of a non-treatment control group (group A), which were then orally given 0.5% CMC carboxymethyl cellulose sodium (0.5% CMC, Wako Pure Chemical Industries, Co.) for 5 days. […] After placing a black ring of the same diameter as the diameter of these chambers at the position of the chambers in place, the number of newly formed vessels of a length of 3 mm or more inside the ring was counted under a stereoscopic microscope. […] Comparison between two groups was done and analyzed by the Wilcoxon's rank sum test; while comparison between multiple groups was done and analyzed by the Dunnett's multiple comparison."}, "rabbit cornea": {"system": "rabbit cornea", "conditions": "rabbit cornea assay system (Yamamoto); cited from earlier work"}}, "data": [{"smiles": "C[C@]12CCC3=C4CCC(=O)C=C4CC[C@H]3[C@@H]1CC[C@@]2(O)CC#N", "note": "[Dienogest, 17 α-cyanomethyl-17 β-hydroxy-estra-4, 9(10)-dien-3-one]", "values": [{"measurement": "dose that significantly increased the number of chorioallantoic membranes with non-vascular region", "setting": "[1]; compared with the control group, dose-dependent", "value": "≥ 0.01", "unit": "μg/egg"}, {"measurement": "frequency of the occurrence of non-vascular region", "setting": "[1]; dose 0.01 μg/egg", "value": 13.3, "unit": "%"}, {"measurement": "Number of choriallantoic membrane with non-vascular region", "setting": "[1]; dose 0.01 μg/egg", "value": 2}, {"measurement": "frequency of the occurrence of non-vascular region", "setting": "[1]; dose 0.1 μg/egg", "value": 23.5, "unit": "%"}, {"measurement": "Number of choriallantoic membrane with non-vascular region", "setting": "[1]; dose 0.1 μg/egg", "value": 4}, {"measurement": "frequency of the occurrence of non-vascular region", "setting": "[1]; dose 1 μg/egg", "value": 48.1, "unit": "%"}, {"measurement": "Number of choriallantoic membrane with non-vascular region", "setting": "[1]; dose 1 μg/egg", "value": 13}, {"measurement": "frequency of the occurrence of non-vascular region", "setting": "[1]; dose 10 μg/egg", "value": 54.2, "unit": "%"}, {"measurement": "Number of choriallantoic membrane with non-vascular region", "setting": "[1]; dose 10 μg/egg", "value": 13}, {"measurement": "frequency of the occurrence of non-vascular region", "setting": "[1]; dose 100 μg/egg", "value": 83.3, "unit": "%"}, {"measurement": "Number of choriallantoic membrane with non-vascular region", "setting": "[1]; dose 100 μg/egg", "value": 20}, {"measurement": "frequency of the occurrence of non-vascular region", "setting": "[1]; dose 1000 μg/egg", "value": 91.7, "unit": "%"}, {"measurement": "Number of choriallantoic membrane with non-vascular region", "setting": "[1]; dose 1000 μg/egg", "value": 22}, {"measurement": "suppression of angiogenesis induced by the S-180 tumor cells (angiogenesis index)", "setting": "[2]; group C, 0.1 mg/kg orally for 5 days", "value": "weak suppression of angiogenesis"}, {"measurement": "suppression of angiogenesis induced by the S-180 tumor cells (angiogenesis index)", "setting": "[2]; group D, 1 mg/kg orally for 5 days, vs solvent control group (p<0.001)", "value": "significantly suppressed angiogenesis"}]}, {"smiles": "CC(=O)O[C@]1(C(C)=O)CC[C@H]2[C@@H]3C[C@H](C)C4=CC(=O)CC[C@]4(C)[C@H]3CC[C@@]21C", "note": "[MPA, medroxyprogesterone acetate]", "values": [{"measurement": "number of chorioallantoic membranes with non-vascular region compared with the control group", "setting": "[1]; 100 μg/egg", "value": "significantly increased"}, {"measurement": "frequency of the occurrence of non-vascular region", "setting": "[1]; dose 100 μg/egg", "value": 50.0, "unit": "%"}, {"measurement": "Number of choriallantoic membrane with non-vascular region", "setting": "[1]; dose 100 μg/egg", "value": 4}]}, {"smiles": "CC(=O)[C@H]1CC[C@H]2[C@@H]3CCC4=CC(=O)CC[C@]4(C)[C@H]3CC[C@]12C", "note": "[progesterone]", "values": [{"measurement": "activity on angiogenic suppression", "setting": "rabbit cornea", "value": "does not have any activity on angiogenic suppression"}]}]}
